Key:
[1] = test system: SK-MEL-2; test: NCI sixty human tumor cell line screen, Melanoma panel; assay type: cell-based; details: SK-MEL-2, Melanoma, NCI protocol
Method: (§1) The in vitro anticancer activity studies for these N-((1-benzyl-1H-1,2,3-triazol-4-yl)methyl) arylamide analogues were carried out at the National Cancer Institute, USA.
(§2) The N-((1-benzyl-1H-1,2,3-triazol-4-yl)methyl)arylamide analogues have been tested at NCI, USA, against sixty human tumor cell lines derived from nine cancer types (leukemia, non-small cell lung cancer, colon cancer, CNS cancer, melanoma cancer, ovarian cancer, renal cancer, prostate cancer and breast cancer). For these compounds results are expressed as growth inhibition (GI50) values as per NCI protocol.

[2] = test system: SK-MEL-5; test: as above; assay type: cell-based; details: SK-MEL-5, Melanoma, NCI protocol
Method: as §1, §2

[3] = test system: SK-MEL-28; test: as above; assay type: cell-based; details: SK-MEL-28, Melanoma, NCI protocol
Method: as §1, §2

[4] = test system: MDA-MB-435; test: as above; assay type: cell-based; details: MDA-MB-435, Melanoma, NCI protocol
Method: as §1, §2

[5] = test system: M14; test: as above; assay type: cell-based; details: NCI protocol
Method: as §1, §2

[6] = test system: LOX IMVI; test: as above; assay type: cell-based; details: NCI protocol
Method: as §1, §2

[7] = test system: UACC-62; test: as above; assay type: cell-based; details: UACC-62, Melanoma, NCI protocol
Method: as §1, §2

[8] = test system: BT-549; test: NCI sixty human tumor cell line screen, Breast panel; assay type: cell-based; details: BT-549, Breast, NCI protocol
Method: as §1, §2

[9] = test system: T-47D; test: as above; assay type: cell-based; details: T47D, NCI protocol
Method: as §1, §2

[10] = test system: MDA-MB-31/ATCC; test: as above; assay type: cell-based; details: NCI protocol
Method: as §1, §2

[11] = test system: MDA-MB-468; test: as above; assay type: cell-based; details: MDA-MB-468, Breast, NCI protocol
Method: as §1, §2

[12] = test system: SNB-19; test: NCI sixty human tumor cell line screen, CNS panel; assay type: cell-based; details: SNB-19, CNS, NCI protocol
Method: as §1, §2

[13] = test system: SF-268; test: NCI sixty human tumor cell line screen, CNS panel; assay type: cell-based; details: SF-268, CNS, NCI protocol
Method: as §1, §2

[14] = test system: U251; test: NCI sixty human tumor cell line screen, CNS panel; assay type: cell-based; details: U-251, NCI protocol
Method: as §1, §2

[15] = test system: SF-539; test: NCI sixty human tumor cell line screen, CNS panel; assay type: cell-based; details: SF-539, CNS, NCI protocol
Method: as §1, §2

[16] = test system: SNB-75; test: NCI sixty human tumor cell line screen, CNS panel; assay type: cell-based; details: SNB-75, CNS, NCI protocol
Method: as §1, §2

[17] = test system: SF-295; test: NCI sixty human tumor cell line screen, CNS panel; assay type: cell-based; details: SF-295, CNS, NCI protocol
Method: as §1, §2

[18] = test system: OVCAR-4; test: NCI sixty human tumor cell line screen, Ovarian panel; assay type: cell-based; details: OVCAR-4, Ovarian, NCI protocol
Method: as §1, §2

[19] = test system: OVCAR-8; test: as above; assay type: cell-based; details: OVCAR-8, Ovarian, NCI protocol
Method: as §1, §2

[20] = test system: OVCAR-3; test: as above; assay type: cell-based; details: OVCAR-3, Ovarian, NCI protocol
Method: as §1, §2

[21] = test system: NCI/ADR-RES; test: as above; assay type: cell-based; details: NCI protocol
Method: as §1, §2

[22] = test system: SK-OV-3; test: as above; assay type: cell-based; details: SK-OV-3, Ovarian, NCI protocol
Method: as §1, §2

[23] = test system: PC-3; test: NCI sixty human tumor cell line screen, Prostate panel; assay type: cell-based; details: PC-3, Prostate, NCI protocol
Method: as §1, §2

[24] = test system: DU-145; test: as above; assay type: cell-based; details: DU-145, Prostate, NCI protocol
Method: as §1, §2

[25] = test system: A549/ATCC; test: NCI sixty human tumor cell line screen, Non-small-cell-lung panel; assay type: cell-based; details: NCI protocol
Method: as §1, §2

[26] = test system: EKVX; test: as above; assay type: cell-based; details: NCI protocol
Method: as §1, §2

[27] = test system: NCI-H522; test: as above; assay type: cell-based; details: NCI protocol
Method: as §1, §2

[28] = test system: HOP-62; test: as above; assay type: cell-based; details: HOP-62, Non-small-cell-lung, NCI protocol
Method: as §1, §2

[29] = test system: NCI-H460; test: as above; assay type: cell-based; details: NCI protocol
Method: as §1, §2

[30] = test system: NCI-H226; test: as above; assay type: cell-based; details: NCI protocol
Method: as §1, §2

[31] = test system: COLO 205; test: NCI sixty human tumor cell line screen, Colon panel; assay type: cell-based; details: COLO 205, Colon, NCI protocol
Method: as §1, §2

[32] = test system: SW-620; test: as above; assay type: cell-based; details: SW-620, Colon, NCI protocol
Method: as §1, §2

[33] = test system: HT29; test: as above; assay type: cell-based; details: HT-29, NCI protocol
Method: as §1, §2

[34] = test system: HCT-116; test: as above; assay type: cell-based; details: HCT-116, Colon, NCI protocol
Method: as §1, §2

[35] = test system: KM12; test: as above; assay type: cell-based; details: NCI protocol
Method: as §1, §2

[36] = test system: ACHN; test: NCI sixty human tumor cell line screen, Renal panel; assay type: cell-based; details: NCI protocol
Method: as §1, §2

[37] = test system: TK-10; test: as above; assay type: cell-based; details: TK-10, Renal, NCI protocol
Method: as §1, §2

[38] = test system: RXF 393; test: as above; assay type: cell-based; details: RXF 393, Renal, NCI protocol
Method: as §1, §2

[39] = test system: UO-31; test: as above; assay type: cell-based; details: UO-31, Renal, NCI protocol
Method: as §1, §2

[40] = test system: A498; test: as above; assay type: cell-based; details: NCI protocol
Method: as §1, §2

[41] = test system: CAKI-1; test: as above; assay type: cell-based; details: CAKI-1, Renal, NCI protocol
Method: as §1, §2

[42] = test system: SN12C; test: as above; assay type: cell-based; details: NCI protocol
Method: as §1, §2

[43] = test system: CCRF-CEM; test: NCI sixty human tumor cell line screen, Leukemia panel; assay type: cell-based; details: NCI protocol
Method: as §1, §2

What does the source list for `COc1ccc(Nc2ncccc2C(=O)NCc2cn(Cc3cccc(Oc4ccccc4)c3)nn2)cc1` [Compound 1e, 2-(4-Methoxyphenylamino)-N-((1-(3-phenoxybenzyl)-1H-1,2,3-triazol-4-yl)methyl) nicotinamide]?
GI50 [1]: 3.66 µM; GI50 [2]: 2.9 µM; GI50 [3]: 3.88 µM; GI50 [4]: 1.71 µM; GI50 [5]: 3.15 µM; GI50 [6]: 3.6 µM; GI50 [7]: 3.13 µM; GI50 [8]: 7.16 µM; GI50 [9]: 4.68 µM; GI50 [10]: 5.35 µM; GI50 [11]: 2.42 µM; GI50 [12]: 3.55 µM; GI50 [13]: 4.59 µM; GI50 [14]: 3.91 µM; GI50 [15]: 2.79 µM; GI50 [16]: 3.09 µM; GI50 [17]: 2.94 µM; GI50 [18]: 5.42 µM; GI50 [19]: 5.96 µM; GI50 [20]: 3.69 µM; GI50 [21]: 3.21 µM; GI50 [22]: 4.33 µM; GI50 [23]: 4.74 µM; GI50 [24]: 1.05 µM; melting point: 95 to 98 °C; GI50 [25]: 3.44 µM; GI50 [26]: 4.16 µM; GI50 [27]: 2.13 µM; GI50 [28]: 5.07 µM; GI50 [29]: 3.52 µM; GI50 [30]: 3.92 µM; GI50 [31]: 2.86 µM; GI50 [32]: 3.86 µM; GI50 [33]: 3.66 µM; GI50 [34]: 4.17 µM; GI50 [35]: 3.43 µM; GI50 [36]: 6.9 µM; GI50 [37]: 5.16 µM; GI50 [38]: 3.77 µM; GI50 [39]: 5.25 µM; GI50 [40]: 4.18 µM; GI50 [41]: 6.3 µM; GI50 [42]: 7.41 µM; GI50 [43]: 3.8 µM

Which results are given for `COc1ccc(Nc2ncccc2C(=O)NCc2cn(Cc3cccc(Oc4ccccc4)c3)nn2)c(OC)c1` [Compound 1g, 2-(2,4-Dimethoxyphenylamino)-N-((1-(3-phenoxybenzyl)-1H-1,2,3-triazol-4-yl)methyl) nicotinamide]?
GI50 [1]: 7.67 µM; GI50 [2]: 0.72 µM; GI50 [3]: 2.6 µM; GI50 [4]: 0.25 µM; GI50 [5]: 2.13 µM; GI50 [6]: 3.01 µM; GI50 [7]: 1.43 µM; GI50 [8]: 3.51 µM; GI50 [9]: 4.28 µM; GI50 [10]: 5.54 µM; GI50 [11]: 1.46 µM; GI50 [12]: 3.33 µM; GI50 [13]: 3.88 µM; GI50 [14]: 3.6 µM; GI50 [15]: 2.65 µM; GI50 [16]: 3.41 µM; GI50 [17]: 0.56 µM; GI50 [18]: 5.11 µM; GI50 [19]: 4.1 µM; GI50 [20]: 1.54 µM; GI50 [21]: 2.12 µM; GI50 [22]: 2.59 µM; GI50 [23]: 0.62 µM; GI50 [24]: 3.37 µM; melting point: 127 to 129 °C; GI50 [25]: 4.15 µM; GI50 [26]: 5.09 µM; GI50 [27]: 1.82 µM; GI50 [28]: 12.7 µM; GI50 [29]: 3.05 µM; GI50 [30]: 2.24 µM; GI50 [31]: 2.14 µM; GI50 [32]: 2.12 µM; GI50 [33]: 3.26 µM; GI50 [34]: 3.08 µM; GI50 [35]: 1.65 µM; GI50 [36]: 4.83 µM; GI50 [37]: 3.14 µM; GI50 [38]: 7.83 µM; GI50 [39]: 8.06 µM; GI50 [40]: 1.01 µM; GI50 [41]: 1.71 µM; GI50 [42]: 1.71 µM; GI50 [43]: 1.2 µM

— patent US9309225B2, “N-((1-benzyl-1H-1,2,3-triazol-4-yl)methyl)arylamide compounds as potential anticancer agents and a process for the preparation thereof” (COUNCIL OF SCIENTIFIC & INDUSTRIAL RESEARCH, priority 2013, dated 2016)
